{"source": "patent US10150760B2", "about": "“Compounds for use in preparing heterocyclic triazole agonists of the APJ receptor” (AMGEN INC., priority 2016, dated 2018)", "biological_target": "human APJ receptor (Homo sapiens (Human), UniProt P35414)", "sequence (P35414 whole entry)": "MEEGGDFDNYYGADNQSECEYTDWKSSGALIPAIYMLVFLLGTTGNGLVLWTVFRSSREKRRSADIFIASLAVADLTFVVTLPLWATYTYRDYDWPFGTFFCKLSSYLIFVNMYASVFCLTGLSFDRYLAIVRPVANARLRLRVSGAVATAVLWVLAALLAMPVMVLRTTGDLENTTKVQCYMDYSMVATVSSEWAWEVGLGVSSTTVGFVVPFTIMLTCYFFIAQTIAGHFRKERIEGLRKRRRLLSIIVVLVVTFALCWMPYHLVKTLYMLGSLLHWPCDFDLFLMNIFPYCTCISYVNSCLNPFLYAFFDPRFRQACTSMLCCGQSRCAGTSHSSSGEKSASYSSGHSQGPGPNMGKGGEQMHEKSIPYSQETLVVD", "experiment": "[35S]GTPγS binding assay on membranes from CHO cells stably expressing human APJ receptor", "assay_type": "biochemical", "settings": "read-out: Activity hAPJ SPA EC50 IP", "procedure,_shortened": "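Agonist-driven [35S]GTPγS (0.2 nM) binding was measured over 90 min at room temperature on human APJ-expressing CHO membranes with bead capture, in buffer containing 3 μM GDP, 200 mM NaCl and 5 mM MgCl2 (pH 7.5). Excess unlabelled GTPγS (100 μM) gave nonspecific signal; EC50 from non-linear fits.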", "data": [{"molecule": "(1R,2S)-1-(5-chloro-2-pyrimidinyl)-N-(4-(1,3-dimethoxy-2-propanyl)-5-((2R)-5,5-dimethyltetrahydro-2-furanyl)-4H-1,2,4-triazol-3-yl)-1-methoxy-2-propanesulfonamide or (1R,2S)-1-(5-chloro-2-pyrimidinyl)-N-(4-(1,3-dimethoxy-2-propanyl)-5-((2S)-5,5-dimethyltetrahydro-2-furanyl)-4H-1,2,4-triazol-3-yl)-1-methoxy-2-propanesulfonamide [Example 307.0]", "values": [{"measurement": "EC50", "result": 14, "unit": "nM"}]}, {"molecule": "COc1cccc(OC)c1-n1c(NS(=O)(=O)[C@@H](C)[C@H](C)c2cnc(C)cn2)nnc1[C@H]1CCCO1", "note": "(single isomer, unassigned) [Example 89.0, (2S,3R)-N-(4-(2,6-dimethoxyphenyl)-5-((S)-tetrahydrofuran-2-yl)-4H-1,2,4-triazol-3-yl)-3-(5-methylpyrazin-2-yl)butane-2-sulfonamide or (2S,3R)-N-(4-(2,6-dimethoxyphenyl)-5-((R)-tetrahydrofuran-2-yl)-4H-1,2,4-triazol-3-yl)-3-(5-methylpyrazin-2-yl)butane-2-sulfonamide]", "values": [{"measurement": "EC50", "result": 23, "unit": "nM"}]}, {"molecule": "COc1ncnc(OC)c1-n1c(NS(=O)(=O)[C@@H](C)[C@H](C)c2ncc(Cl)cn2)nnc1[C@H]1CCOC1", "note": "(single isomer, unassigned) [Example 94.0, (2S,3R)-3-(5-chloropyrimidin-2-yl)-N-(4-(4,6-dimethoxypyrimidin-5-yl)-5-((R)-tetrahydrofuran-3-yl)-4H-1,2,4-triazol-3-yl)butane-2-sulfonamide or (2S,3R)-3-(5-chloropyrimidin-2-yl)-N-(4-(4,6-dimethoxypyrimidin-5-yl)-5-((S)-tetrahydrofuran-3-yl)-4H-1,2,4-triazol-3-yl)butane-2-sulfonamide]", "values": [{"measurement": "EC50", "result": 190, "unit": "nM"}]}, {"molecule": "(2S,3R)-N-(4-(1,3-dimethoxy-2-propanyl)-5-((2R,5R)-5-methyltetrahydro-2-furanyl)-4H-1,2,4-triazol-3-yl)-3-(5-fluoro-2-pyrimidinyl)-2-butanesulfonamide or (2S,3R)-N-(4-(1,3-dimethoxy-2-propanyl)-5-((2S,5S)-5-methyltetrahydro-2-furanyl)-4H-1,2,4-triazol-3-yl)-3-(5-fluoro-2-pyrimidinyl)-2-butanesulfonamide [Example 368.0]", "values": [{"measurement": "EC50", "result": 100, "unit": "nM"}]}, {"molecule": "CCC(CC)n1c(NS(=O)(=O)[C@@H](C)[C@H](OC)c2ncc(Cl)cn2)nnc1[C@@H]1COCCO1", "note": "(single isomer, unassigned) [Example 335.0, (1R,2S)-1-(5-chloro-2-pyrimidinyl)-N-(5-((2R)-1,4-dioxan-2-yl)-4-(3-pentanyl)-4H-1,2,4-triazol-3-yl)-1-methoxy-2-propanesulfonamide or (1R,2S)-1-(5-chloro-2-pyrimidinyl)-N-(5-((2S)-1,4-dioxan-2-yl)-4-(3-pentanyl)-4H-1,2,4-triazol-3-yl)-1-methoxy-2-propanesulfonamide]", "values": [{"measurement": "EC50", "result": 38, "unit": "nM"}]}, {"molecule": "COc1cccc(OC)c1-n1c(NS(=O)(=O)[C@H](C)[C@H](OC(C)C)c2cn3ccccc3n2)nnc1[C@H]1COCCO1", "note": "(single isomer, unassigned) [Example 266.0, (1R,2R)—N-(4-(2,6-dimethoxyphenyl)-5-((S)-1,4-dioxan-2-yl)-4H-1,2,4-triazol-3-yl)-1-(imidazo[1,2-a]pyridin-2-yl)-1-isopropoxypropane-2-sulfonamide or (1S,2S)—N-(4-(2,6-dimethoxyphenyl)-5-((S)-1,4-dioxan-2-yl)-4H-1,2,4-triazol-3-yl)-1-(imidazo[1,2-a]pyridin-2-yl)-1-isopropoxypropane-2-sulfonamide]", "values": [{"measurement": "EC50", "result": 150, "unit": "nM"}]}, {"molecule": "COc1cccc(OC)c1-n1c(NS(=O)(=O)[C@@H](C)[C@@H](OC(C)C)c2ncc(C)cn2)nnc1[C@@H]1COC(C)(C)C1", "note": "(single isomer, unassigned) [Example 411.0, (1S,2S)-N-(4-(2,6-dimethoxyphenyl)-5-((3R)-5,5-dimethyltetrahydro-3-furanyl)-4H-1,2,4-triazol-3-yl)-1-(5-methyl-2-pyrimidinyl)-1-(2-propanyloxy)-2-propanesulfonamide or (1S,2S)-N-(4-(2,6-dimethoxyphenyl)-5-((3S)-5,5-dimethyltetrahydro-3-furanyl)-4H-1,2,4-triazol-3-yl)-1-(5-methyl-2-pyrimidinyl)-1-(2-propanyloxy)-2-propanesulfonamide]", "values": [{"measurement": "EC50", "result": 86, "unit": "nM"}]}, {"molecule": "COc1cccc(OC)c1-n1c(NS(=O)(=O)[C@@H](C)[C@@H](OC(C)C)c2ncc(Cl)cn2)nnc1[C@H]1CCOC1", "note": "(single isomer, unassigned) [Example 281.0, (1S,2S)-1-(5-chloropyrimidin-2-yl)-N-(4-(2,6-dimethoxyphenyl)-5-((R)-tetrahydrofuran-3-yl)-4H-1,2,4-triazol-3-yl)-1-isopropoxypropane-2-sulfonamide or (1S,25)-1-(5-chloropyrimidin-2-yl)-N-(4-(2,6-dimethoxyphenyl)-5-((S)-tetrahydrofuran-3-yl)-4H-1,2,4-triazol-3-yl)-1-isopropoxypropane-2-sulfonamide]", "values": [{"measurement": "EC50", "result": 0.11, "unit": "nM"}]}, {"molecule": "(1R,2S)-N-(4-(2,6-dimethoxyphenyl)-5-((S)-tetrahydro-2H-pyran-3-yl)-4H-1,2,4-triazol-3-yl)-1-hydroxy-1-(5-methylpyrimidin-2-yl)propane-2-sulfonamide or (1R,2S)-N-(4-(2,6-dimethoxyphenyl)-5-((R)-tetrahydro-2H-pyran-3-yl)-4H-1,2,4-triazol-3-yl)-1-hydroxy-1-(5-methylpyrimidin-2-yl)propane-2-sulfonamide [Example 193.0]", "values": [{"measurement": "EC50", "result": 180, "unit": "nM"}]}, {"molecule": "(1S,2S)-N-(4-(4,6-dimethoxypyrimidin-5-yl)-5-((R)-tetrahydrofuran-3-yl)-4H-1,2,4-triazol-3-yl)-1-isopropoxy-1-(5-methylpyridin-2-yl)propane-2-sulfonamide or (1S,2S)-N-(4-(4,6-dimethoxypyrimidin-5-yl)-5-((S)-tetrahydrofuran-3-yl)-4H-1,2,4-triazol-3-yl)-1-isopropoxy-1-(5-methylpyridin-2-yl)propane-2-sulfonamide [Example 323.0]", "values": [{"measurement": "EC50", "result": 47, "unit": "nM"}]}, {"molecule": "(2S,3R)-N-(4-(2,6-dimethoxyphenyl)-5-((R)-1,4-dioxan-2-yl)-4H-1,2,4-triazol-3-yl)-3-(5-methoxypyrazin-2-yl)butane-2-sulfonamide or (2S,3R)-N-(4-(2,6-dimethoxyphenyl)-5-((S)-1,4-dioxan-2-yl)-4H-1,2,4-triazol-3-yl)-3-(5-methoxypyrazin-2-yl)butane-2-sulfonamide [Example 208.0]", "values": [{"measurement": "EC50", "result": 20, "unit": "nM"}]}, {"molecule": "(1R,2S)-1-(5-chloro-2-pyrimidinyl)-N-(4-(1,3-dimethoxy-2-propanyl)-5-((3S)-tetrahydro-3-furanyl)-4H-1,2,4-triazol-3-yl)-1-methoxy-2-propanesulfonamide or (1R,2S)-1-(5-chloro-2-pyrimidinyl)-N-(4-(1,3-dimethoxy-2-propanyl)-5-((3R)-tetrahydro-3-furanyl)-4H-1,2,4-triazol-3-yl)-1-methoxy-2-propanesulfonamide [Example 306.0]", "values": [{"measurement": "EC50", "result": 900, "unit": "nM"}]}, {"molecule": "(1R,2S)-N-(4-([1,1′-bi(cyclopropyl)]-1-yl)-5-((2S)-1,4-dioxan-2-yl)-4H-1,2,4-triazol-3-yl)-1-(5-chloro-2-pyrimidinyl)-1-methoxy-2-propanesulfonamide or (1R,2S)-N-(4-([1,1′-bi(cyclopropyl)]-1-yl)-5-((2R)-1,4-dioxan-2-yl)-4H-1,2,4-triazol-3-yl)-1-(5-chloro-2-pyrimidinyl)-1-methoxy-2-propanesulfonamide [Example 325.0]", "values": [{"measurement": "EC50", "result": 14, "unit": "nM"}]}, {"molecule": "(2R,3S)-N-(4-(2,6-dimethoxyphenyl)-5-((S)-tetrahydrofuran-2-yl)-4H-1,2,4-triazol-3-yl)-3-(5-methylpyrimidin-2-yl)butane-2-sulfonamide or (2R,3S)-N-(4-(2,6-dimethoxyphenyl)-5-((R)-tetrahydrofuran-2-yl)-4H-1,2,4-triazol-3-yl)-3-(5-methylpyrimidin-2-yl)butane-2-sulfonamide [Example 220.0]", "values": [{"measurement": "EC50", "result": 510, "unit": "nM"}]}, {"molecule": "COc1cccc(OC)c1-n1c(NS(=O)(=O)[C@@H](C)[C@H](C)c2ncc(F)cn2)nnc1[C@H]1CCC(C)(C)O1", "note": "(single isomer, unassigned) [Example 334.0, (2S,3R)-N-(4-(2,6-dimethoxyphenyl)-5-((R)-5,5-dimethyltetrahydrofuran-2-yl)-4H-1,2,4-triazol-3-yl)-3-(5-fluoropyrimidin-2-yl)butane-2-sulfonamide or (2S,3R)-N-(4-(2,6-dimethoxyphenyl)-5-((S)-5,5-dimethyltetrahydrofuran-2-yl)-4H-1,2,4-triazol-3-yl)-3-(5-fluoropyrimidin-2-yl)butane-2-sulfonamide]", "values": [{"measurement": "EC50", "result": 2.5, "unit": "nM"}]}, {"molecule": "(2S,3R)-N-(4-(1,3-dimethoxy-2-propanyl)-5-((2R,5R)-5-methyltetrahydro-2-furanyl)-4H-1,2,4-triazol-3-yl)-3-(5-methoxy-2-pyrimidinyl)-2-butanesulfonamide or (2S,3R)-N-(4-(1,3-dimethoxy-2-propanyl)-5-((2S,5S)-5-methyltetrahydro-2-furanyl)-4H-1,2,4-triazol-3-yl)-3-(5-methoxy-2-pyrimidinyl)-2-butanesulfonamide [Example 371.0]", "values": [{"measurement": "EC50", "result": 15, "unit": "nM"}]}, {"molecule": "CO[C@H](c1ncc(Cl)cn1)[C@H](C)S(=O)(=O)Nc1nnc([C@H]2CCOC2)n1C(C)C", "note": "(single isomer, unassigned) [Example 297.0, (1R,2S)-1-(5-chloropyrimidin-2-yl)-N-(4-isopropyl-5-((R)-tetrahydrofuran-3-yl)-4H-1,2,4-triazol-3-yl)-1-methoxypropane-2-sulfonamide or (1R,2S)-1-(5-chloropyrimidin-2-yl)-N-(4-isopropyl-5-((S)-tetrahydrofuran-3-yl)-4H-1,2,4-triazol-3-yl)-1-methoxypropane-2-sulfonamide]", "values": [{"measurement": "EC50", "result": 1470, "unit": "nM"}]}, {"molecule": "COc1cccc(OC)c1-n1c(NS(=O)(=O)CCc2ncc(Cl)cn2)nnc1[C@H]1CCCO1", "note": "[Example 389.0, 2-(5-chloro-2-pyrimidinyl)-N-(4-(2,6-dimethoxyphenyl)-5-((2R)-tetrahydro-2-furanyl)-4H-1,2,4-triazol-3-yl)ethanesulfonamide]", "values": [{"measurement": "EC50", "result": 96, "unit": "nM"}]}]}
